Laboratory results reported in publication PMC6576746, “Rational discovery of dual-indication multi-target PDE/Kinase inhibitor for precision anti-cancer therapy using structural systems pharmacology” (PLoS Computational Biology, 2019).

What was measured:
Test in all cases: cells
Design in all cases: species or system panel of human cancer cell lines; Eurofins OncoPanel proliferation; nuclei count by high-content fluorescence imaging, 10-point dose response
[1] = system: U2OS; conditions: Homo sapiens, U2OS, 72 h, cell count, 3 days
Outline: (§1)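 Cells in RPMI 1640/10% FBS or special medium received compound the day after seeding, with a time-zero plate; 3-day incubation at 37°C, 5% CO2. Nuclei imaged by fluorescence microscopy; 10 half-log doses from 100 μM, 0.1% DMSO. EC50, IC50, GI50 and activity area (0–10) from curve fits.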

[2] = system: HepG2; conditions: Homo sapiens, HepG2, 72 h, cell count, 3 days
Outline: as §1

[3] = system: OE21; conditions: OE21, 72 h, cell count, 3 days
Outline: as §1

[4] = system: 647-V; conditions: Homo sapiens, 647-V, 72 h, cell count, 3 days
Outline: as §1

[5] = system: UM-UC-3; conditions: Homo sapiens, UMUC3, 72 h, cell count, 3 days
Outline: as §1

[6] = system: HT-29; conditions: Homo sapiens, HT-29, 72 h, cell count, 3 days
Outline: as §1

[7] = system: AGS; conditions: Homo sapiens, AGS, 72 h, cell count, 3 days
Outline: as §1

[8] = system: DB; conditions: Homo sapiens, DB, 72 h, cell count, 3 days
Outline: as §1

[9] = system: Hs 695T; conditions: Homo sapiens, Hs 695T, 72 h, cell count, 3 days
Outline: as §1

[10] = system: DBTRG-05MG; conditions: Homo sapiens, DBTRG-05MG, 72 h, cell count, 3 days
Outline: as §1

[11] = system: SaOS2; conditions: Homo sapiens, SAOS-2, 72 h, cell count, 3 days
Outline: as §1

[12] = system: Jiyoye; conditions: Homo sapiens, JIYOYE, 72 h, cell count, 3 days
Outline: as §1

[13] = system: A101D; conditions: Homo sapiens, A101D, 72 h, cell count, 3 days
Outline: as §1

[14] = system: DLD-1; conditions: Homo sapiens, DLD-1, 72 h, cell count, 3 days
Outline: as §1

[15] = 50% of maximum possible response

C[C@@H]1CC(=O)NN=C1c1ccc(NN=C(C#N)C#N)cc1 [levosimendan]
IC50 [1, 15]: 8.58 µM
GI50 ([1]; corrected for time zero): 6.64 µM
EC50 ([1]; curve inflection point): 7.6 µM
IC50 [2, 15]: 42.1 µM
GI50 ([2]; corrected for time zero): 36.7 µM
EC50 ([2]; curve inflection point): 42.1 µM
IC50 [3, 15]: 85.5 µM
GI50 ([3]; corrected for time zero): 76 µM
EC50 ([3]; curve inflection point): 85.5 µM
IC50 [4, 15]: 13.7 µM
GI50 ([4]; corrected for time zero): 8.64 µM
EC50 ([4]; curve inflection point): 13.7 µM
IC50 [5, 15]: 48.5 µM
GI50 ([5]; corrected for time zero): 46 µM
EC50 ([5]; curve inflection point): 48.5 µM
IC50 [6, 15]: > 100 µM
GI50 ([6]; corrected for time zero): 82.7 µM
EC50 ([6]; curve inflection point): > 100 µM
IC50 [7, 15]: 4.21 µM
GI50 ([7]; corrected for time zero): 3.91 µM
EC50 ([7]; curve inflection point): 3.93 µM
IC50 [8, 15]: 17.6 µM
GI50 ([8]; corrected for time zero): 14.5 µM
EC50 ([8]; curve inflection point): 17.6 µM
IC50 [9, 15]: 44.9 µM
GI50 ([9]; corrected for time zero): 15.2 µM
EC50 ([9]; curve inflection point): 26.7 µM
IC50 [10, 15]: 75.6 µM
GI50 ([10]; corrected for time zero): 41.4 µM
EC50 ([10]; curve inflection point): 75.6 µM
IC50 [11, 15]: 54.5 µM
GI50 ([11]; corrected for time zero): 35.7 µM
EC50 ([11]; curve inflection point): 54.5 µM
IC50 [12, 15]: 62.5 µM
GI50 ([12]; corrected for time zero): 54.6 µM
EC50 ([12]; curve inflection point): 62.5 µM
IC50 [13, 15]: 34.8 µM
GI50 ([13]; corrected for time zero): 26.6 µM
EC50 ([13]; curve inflection point): 34.8 µM
IC50 [14, 15]: 25.1 µM
GI50 ([14]; corrected for time zero): 23.7 µM
EC50 ([14]; curve inflection point): 23.9 µM
